Measured values published in the supplement of paper PMC10307832.

Assays:
Assay in all cases: relative viability (nuclei count vs DMSO), 5 days (fraction); higher = more cells survive
Crenolanib + OSI-027 = compound: CC1(COc2ccc3c(c2)ncn3-c2ccc3cccc(N4CCC(N)CC4)c3n2)COC1 [Crenolanib] + COc1cccc2cc(-c3nc([C@H]4CC[C@H](C(=O)O)CC4)n4ncnc(N)c34)[nH]c12 [OSI-027] (partner 0.5 µM)
Procedure, shortened: (§1)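 For relative viability, nuclei counts in treated wells were divided by those in vehicle wells. Lung cancer cell lines had been pin-tool dosed in 1536-well plates the day after seeding and cultured for 5 days, then fixed and stained in one step (final 0.05% Triton X-100, 1% formaldehyde, 1 ug/ml Hoechst) and imaged at 4×. Doses were one drug alone or a fixed anchor-drug dose plus five library-drug doses (not always all listed) in √10 steps, and values are duplicate-plate medians.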

Tivantinib + Luminespib = compound: O=C1NC(=O)[C@@H](c2cn3c4c(cccc24)CCC3)[C@@H]1c1c[nH]c2ccccc12 [Tivantinib] + CCNC(=O)c1noc(-c2cc(C(C)C)c(O)cc2O)c1-c1ccc(CN2CCOCC2)cc1 [Luminespib] (partner 0.01 µM)
Procedure, shortened: as §1

Tivantinib + Lapatinib = compound: O=C1NC(=O)[C@@H](c2cn3c4c(cccc24)CCC3)[C@@H]1c1c[nH]c2ccccc12 [Tivantinib] + CS(=O)(=O)CCNCc1ccc(-c2ccc3ncnc(Nc4ccc(OCc5cccc(F)c5)c(Cl)c4)c3c2)o1 [Lapatinib] (partner 2 µM)
Procedure, shortened: as §1

Tivantinib + AZD7762 = compound: O=C1NC(=O)[C@@H](c2cn3c4c(cccc24)CCC3)[C@@H]1c1c[nH]c2ccccc12 [Tivantinib] + NC(=O)Nc1cc(-c2cccc(F)c2)sc1C(=O)N[C@H]1CCCNC1 [AZD7762] (partner 0.2 µM)
Procedure, shortened: as §1

Cell Line | relative viability (Crenolanib + OSI-027; first compound 0.01 µM) | relative viability (Crenolanib + OSI-027; first compound 0.03162 µM) | relative viability (Crenolanib + OSI-027; first compound 0.1 µM) | relative viability (Crenolanib + OSI-027; first compound 0.3162 µM) | relative viability (Crenolanib + OSI-027; first compound 1 µM) | relative viability (Tivantinib + Luminespib; first compound 0.01 µM) | relative viability (Tivantinib + Luminespib; first compound 0.03162 µM) | relative viability (Tivantinib + Luminespib; first compound 0.1 µM) | relative viability (Tivantinib + Luminespib; first compound 0.3162 µM) | relative viability (Tivantinib + Lapatinib; first compound 0.01 µM) | relative viability (Tivantinib + Lapatinib; first compound 0.03162 µM) | relative viability (Tivantinib + Lapatinib; first compound 0.1 µM) | relative viability (Tivantinib + Lapatinib; first compound 0.3162 µM) | relative viability (Tivantinib + AZD7762; first compound 0.01 µM) | relative viability (Tivantinib + AZD7762; first compound 0.03162 µM) | relative viability (Tivantinib + AZD7762; first compound 0.1 µM) | relative viability (Tivantinib + AZD7762; first compound 0.3162 µM)
NCI-H1355 | 0.491 | 0.382 | 0.409 | 0.417 | 0.35 | 0.787 | 0.687 | 0.726 | 0.723 | 1.04 | 0.928 | 0.899 | 1.09 | 0.756 | 0.819 | 0.794 | 0.637
NCI-H1395 | 0.749 | 0.626 | 0.666 | 0.605 | 0.6 | 0.82 | 0.662 | 0.557 | 0.403 | 1.23 | 1.18 | 0.981 | 0.992 | 0.406 | 0.405 | 0.395 | 0.371
NCI-H1437 | 0.902 | 0.862 | 0.936 | 0.869 | 0.855 | 1.13 | 1.15 | 1.1 | 1.06 | 0.797 | 0.635 | 0.691 | 0.795 | 1.22 | 1.16 | 1.11 | 0.96
NCI-H1651 | 0.77 | 0.668 | 0.715 | 0.674 | 0.702 | 0.768 | 1.02 | 0.764 | 0.77 | 0.866 | 0.691 | 0.799 | 0.929 | 0.452 | 0.404 | 0.437 | 0.353
NCI-H1666 | 0.85 | 0.933 | 0.834 | 0.906 | 0.85 | 0.963 | 1.05 | 0.944 | 0.939 | 0.743 | 0.609 | 0.574 | 0.574 | 0.904 | 0.841 | 0.835 | 0.705
NCI-H1734 | 0.706 | 0.563 | 0.561 | 0.822 | 0.566 | 0.206 | 0.198 | 0.0957 | 0.191 | 1.01 | 0.938 | 1.05 | 1.01 | 0.6 | 0.487 | 0.505 | 0.478
NCI-H1755 | 0.701 | 0.797 | 0.696 | 0.708 | 0.653 | 0.478 | 0.473 | 0.4 | 0.437 | 1.07 | 1.02 | 0.983 | 1.15 | 0.457 | 0.476 | 0.47 | 0.424
NCI-H1792 | 0.756 | 0.82 | 0.691 | 0.723 | 0.647 | 0.479 | 0.323 | 0.338 | 0.391 | 0.91 | 0.939 | 0.822 | 0.964 | 0.653 | – | 0.644 | 0.589
NCI-H1793 | 0.297 | 0.335 | 0.237 | 0.311 | 0.268 | 0.186 | 0.22 | 0.156 | 0.203 | 0.836 | 0.735 | 0.651 | – | 0.355 | 0.645 | 0.412 | 0.378
NCI-H1915 | 0.583 | 0.646 | 0.592 | 0.634 | 0.417 | 0.883 | 0.775 | 0.722 | 0.765 | 0.95 | 0.985 | 1 | 0.996 | 0.654 | 0.771 | 0.629 | 0.665
NCI-H1944 | 0.554 | 0.408 | 0.416 | 0.397 | 0.346 | 0.712 | 0.609 | 0.697 | 0.608 | 0.832 | 0.742 | 0.895 | 0.906 | 0.513 | 0.511 | 0.472 | 0.426
NCI-H1975 | 0.717 | 0.792 | 0.668 | 0.682 | 0.778 | 0.197 | 0.307 | 0.17 | 0.218 | 0.943 | 0.863 | 0.795 | 1.1 | 0.734 | 0.667 | 0.714 | –
NCI-H1993 | 0.527 | 0.526 | 0.509 | 0.567 | 0.592 | 1 | 0.822 | 0.421 | 0.56 | 0.94 | 0.74 | 0.706 | 0.852 | 0.768 | 0.715 | 0.656 | 0.455
NCI-H2085 | 0.707 | 0.745 | 0.706 | 0.865 | 0.709 | 0.429 | 0.379 | 0.403 | 0.42 | 0.824 | 0.77 | 0.765 | 0.82 | 1.01 | 0.944 | 0.942 | 0.813
NCI-H2087 | 0.664 | 0.642 | 0.471 | 0.546 | 0.467 | 0.165 | 0.182 | 0.139 | 0.137 | 1.1 | 1.16 | 0.862 | 1.13 | 1.28 | 1.47 | 1.12 | 1.32
NCI-H2126 | 0.727 | 0.691 | 0.751 | 0.721 | 0.644 | 0.978 | 0.886 | 0.884 | 0.745 | 0.799 | 0.737 | 0.77 | 0.799 | 1 | 1.03 | 0.94 | 1.04
